Test results published in BindingDB's records for doi:10.1021/jm00087a007 (Uppsala University, 1992).
pKi: −log10 of the molar value.

How the values were obtained:
[1] = Compound was evaluated for its binding affinity against Muscarinic acetylcholine receptor M1 in guinea pig cerebral cortex using (-)-[3H]-QNB as radioligand
[2] = Compound was evaluated for its binding affinity against muscarinic acetylcholine receptor M2 in guinea pig heart using (-)-[3H]-QNB as radioligand
[3] = as above; remark: listed apart in the source
[4] = Compound was evaluated for its binding affinity against Muscarinic acetylcholine receptor M1 in guinea pig cerebral cortex using (-)-[3H]-QNB as radioligand; remark: listed apart in the source
[5] = Compound was evaluated for its binding affinity against muscarinic acetylcholine receptor M2 in guinea pig heart using (-)-[3H]-QNB as radioligand; remark: listed apart in the source

With `C[C@H]1OCC2(CN3CCC2CC3)O1` (stereo partly drawn) [(2'S)-2'-methylspiro[4-azabicyclo[2.2.2]octane-2,4'-[1,3]dioxolane]] as the compound, how does the pKi [1] read?
The pKi was 5.54.

What about the pKi [2] of the same compound?
The pKi was 5.01.

Which results are given for `C[C@@H]1CC2(CO1)CN1CCC2CC1` (stereo partly specified)?
pKi [1]: 5.20; pKi [3]: < 4.70

With `CC1(C)OCC2(CN3CCC2CC3)O1` (stereo unspecified) as the compound, how does the pKi [1] read?
Its pKi is 5.03.

And the pKi [2]?
The pKi was 4.52.

What does the source list for `C[C@H]1CCC2(CN3CCC2CC3)O1` (stereo partly specified)?
pKi [1]: 4.82; pKi [3]: 4.82

With `C1OCC2(CN3CCC2CC3)O1` (stereo unspecified) as the compound, how does the pKi [1] read?
Its pKi is 4.72.

What about the pKi [2] of the same compound?
Its pKi is 4.30.

Which results are given for `C[C@@H]1OCC2(CN3CCC2CC3)O1` (stereo partly drawn) [(2'S)-2'-methylspiro[4-azabicyclo[2.2.2]octane-2,4'-[1,3]dioxolane]]?
pKi [1]: 5.20; pKi [3]: < 4.68

Which results are given for `C[C@H]1CC2(CO1)CN1CCC2CC1` (stereo partly specified)?
pKi [4]: 5.19; pKi [5]: < 4.70

With `C[C@@H]1CCC2(CN3CCC2CC3)O1` (stereo partly specified) as the compound, how does the pKi [4] read?
The pKi was 4.70.

What about the pKi [5] of the same compound?
The pKi was under 4.60.
